The text below walks through data of patent US8242168B2, “Use of phthalide derivatives for the treatment of type 2 diabetes mellitus” (DSM IP Assets B.V., priority 2003, dated 2012).

Assay [1] has as its system C3H10T1/2 cells. The assay is described as follows: Glucose uptake of adipocytes (radioactive 2-deoxyglucose). In kind it is cell-based. Conditions: for Basal glucose uptake / Basal glucose uptake (result in words): 48-h treatment; for Basal glucose uptake: absence of insulin, ± SEM; for Basal glucose uptake (result in words): different concentrations. As for the experimental part:
C3H10T1/2 cells (ATCC CCL-226) were grown for 5 days to confluence in DMEM supplemented with 10% FBS medium and induced with a mixture of insulin, dexamethasone and 3-isobutyl-1-methylxanthine to differentiate into adipocytes. Nine days after the beginning of induction, cells were treated for 48-h with ligustilide at different concentrations as shown in Table 2. Glucose uptake was determined using radioactive 2-deoxyglucose (10 μM 2-DG in HBS+0.5 μCi/ml of 3[H]-2-DG), measuring glucose uptake in the absence of insulin. Basal glucose uptake was increased by 48-h treatment with ligustilide in a dose-dependent manner (Table 2). This increase in glucose uptake was specific, since the increase was not observed in the presence of phloretin, a known inhibitor of specific glucose uptake.
Growing, induction and treatment of C3H10T1/2 cells were exactly as described in Example 1, with die exception that 3-butylphthalide at different concentrations was used instead of ligustilide.
Growing, induction and treatment of C3H10T1/2 cells were exactly as described in Example 1, with the exception that 3-butylidenphthalide at different concentrations was used instead of ligustilide.

The test system of assay [2] is C3H10T1/2 cells. Kind of assay: Differentiation of adipocytes (oil Red O staining). The note with it: for Differentiation of the cells into adipocytes versus insulin alone (result in words): co-treatment with insulin, 10 days; for Mean OD ± SEM (oil Red O, 540 nm): 10-day treatment. The assay is classed as cell-based.
Procedure: After the 10-day treatment, the cells were stained with oil Red O as follows: cells were washed 2× in PBS and fixed in 10% formalin at room temperature for 1 h. After removal of formalin, 200 μl of oil Red O staining solution (3:2 mixture of 0.5% w/v oil Red O stock solution and water) was applied to each well. The cells were incubated for 20 min at room temperature, washed twice in 2×PBS and incubated for 10 min with 300 μl of isopropanol/well for oil Red O extraction. Quantification of oil Red O was determined by measuring absorbance at 540 nm (mean OD).
The measurement of adipocyte differentiation using the oil Red O assay was performed as described in Example 4.
In assay [3] the test system is C57BLKS/J db/db mice. The assay is described as follows: Blood glucose and oral glucose tolerance test in db/db mice. In kind it is in vivo. As for the experimental part:
The efficacy of ligustilide on glucose tolerance was tested in a 7-day study in C57BLKS/J db/db mice (n=10/group), a model of late type 2 diabetes mellitus with severe hyperglycemia which is widely used to determine the efficacy of PPARγ ligands.
Male db/db mice were obtained from Jackson Laboratory (Bar Harbor, Me., USA). Adult mice aged 12 weeks were used in the experiment. Mice were housed individually in plastic cages with bedding and allowed free access to standard rodent food and tap water. The animal rooms were controlled for temperature (24° C.), humidity (55%), and light (12-h light-dark cycle). The animals were randomized in two groups and ligustilide was administered orally to one of the groups for 7 days at a dose of 200 mg/kg BW/day. After 7 days of treatment the concentration of glucose was determined in blood from fed animals, i.e., animals which were not restricted from food. After a period of 5 days of treatment an oral glucose tolerance test (OGTT) was performed. For the OGTT mice were fasted overnight and then a 1-g glucose/kg BW solution was orally administered. […] Blood glucose was measured by a glucose analyzer (Glucotrend Premium, Roche Diagnostics, Rotkreuz, Switzerland).

[4] abbreviates: insulin 1 × 10^−7 M + compound 1 × 10^−5 M.
Setting [5] is: insulin 1 × 10^−7 M + compound 1 × 10^−4 M.

“And” between values parts separate entries of the source, which are not always exact repeats. Equal entries are not always repeated.

In the case of `CCCC[C@@H]1OC(=O)c2ccccc21` (stereo in doubt) [3-Butylphthalide], the figures for the Basal glucose uptake in assay [1] (1 × 10^−4 M), in assay [1] (1 × 10^−5 M) and in assay [1] (1 × 10^−6 M) were 136.7 ± 8.5 % of control, 97.5 ± 8.5 % of control and 99.3 ± 8.5 % of control, respectively. Also, the “Basal glucose uptake (result in words)” value in assay [1] is “increase”. In addition, the “Differentiation of the cells into adipocytes versus insulin alone (result in words)” value (shortened to “Differentiation”) in assay [2] was “higher differentiation”. In addition, in assay [2] (setting [4]), the “Mean OD ± SEM (oil Red O, 540 nm)” value worked out at 0.21 ± 0.01.

With `CCC/C=C1\OC(=O)c2ccccc21` [3-Butylidenephthalide], the Basal glucose uptake is listed as 137.3 ± 8.5 % of control in assay [1] (1 × 10^−4 M), 123.8 ± 8.5 % of control in assay [1] (1 × 10^−5 M) and 107.0 ± 8.5 % of control in assay [1] (1 × 10^−6 M). Further, the “Basal glucose uptake (result in words)” value in assay [1] is “increase”. In addition, in assay [2], the “Differentiation” value is reported as “higher differentiation”. Further, the “Mean OD ± SEM (oil Red O, 540 nm)” value in assay [2] (setting [5]) is 0.28 ± 0.01; in assay [2] (setting [4]), 0.15 ± 0.01; in assay [2] (insulin 1 × 10^−7 M + compound 5 × 10^−5 M), 0.22 ± 0.01.

For the compound `CC1(COc2ccc(CC3SC(=O)NC3=O)cc2)CCCCC1` (centres unmarked) [Ciglitazone, reference compound], the Basal glucose uptake in assay [1] (5 × 10^−5 M) is 381.5 ± 24.4 % of control.

For `CCC/C=C1\OC(=O)C2=C1CCC=C2` [Ligustilide], the Basal glucose uptake in assay [1] (1 × 10^−4 M) is given as 175.0 ± 24.4 % of control; in assay [1] (2 × 10^−4 M), 294.4 ± 24.4 % of control; in assay [1] (5 × 10^−5 M) it was 131.8 ± 24.4 % of control; in assay [1] (5 × 10^−6 M), 105.9 ± 24.4 % of control. For the same compound, the “Basal glucose uptake (result in words)” value in assay [1] is “increased”. Further, the “Increase in glucose uptake in the presence of phloretin” value in assay [1] (phloretin, inhibitor of specific glucose uptake) was “not observed”. Besides, the “Differentiation” value in assay [2] is recorded as “higher differentiation”. The “Mean OD ± SEM (oil Red O, 540 nm)” value in assay [2] (insulin 2 × 10^−7 M + compound 5 × 10^−6 M) came out at 1.71 ± 0.34. The “Glucose AUC of an OGTT (result in words)” value in assay [3] (1 g glucose/kg body weight, day 5) was “significantly reduced”. Moreover, the “Blood glucose levels during the OGTT versus control (result in words)” value in assay [3] (OGTT on day 5, 15-180 min) is listed as “lower at all time points”. For the same compound, the “Glucose levels of fasted animals versus untreated control (result in words)” value in assay [3] (after 5 days of treatment, overnight fasting) is “significantly decreased”. Moreover, the “Glucose levels of fed animals (result in words)” value in assay [3] (after 7 days of treatment, 200 mg/kg BW/day) is listed as “significantly lowered”. In assay [3] (db/db mice, 200 mg/kg BW/day orally, after 5 days, overnight fasting), the “Blood Glucose Fasted” value stood at 196 mg/dL. Moreover, the “Blood Glucose Fed” value in assay [3] (db/db mice, 200 mg/kg BW/day orally, after 7 days, fed animals) came out at 388 mg/dL. Also, in assay [3] (db/db mice, 200 mg/kg BW/day orally, day 5, OGTT 1 g glucose/kg BW, 0-180 min), the “Glucose AUC (OGTT)” value worked out at 51039.

Consider `CCCC[C@@H]1OC(=O)C2=CCCCC21` (some centres unmarked) [Sedanolide], for which the “Differentiation” value in assay [2] was “higher differentiation”. The “Mean OD ± SEM (oil Red O, 540 nm)” value in assay [2] (setting [5]) is recorded as 0.18 ± 0.01; in assay [2] (setting [4]), 0.15 ± 0.01.

Consider Insulin [reference compound], for which the “Mean OD ± SEM (oil Red O, 540 nm)” value in assay [2] (insulin 1 × 10^−7 M alone) is 0.14 ± 0.01 and 0.16 ± 0.01; in assay [2] (insulin 2 × 10^−7 M alone (negative control)) it was 0.687 ± 0.34.
